Laboratory results reported in patent publication US20250263408A1 (Uniquest Pty Ltd, priority 2022, published 2025).
pEC50: −log10 of the molar value.

Tests used:
Ba/F3-Syk cells = molecular target: T1, Ba/F3-Syk cells (Homo sapiens, UniProt P43405); assay: Ba/F3 Proliferation Assay, Ba/F3-Syk cells (Resazurin); assay type: cell-based; details: 48-hour incubation
T1 construct: fused on or other part: Possible but unprinted fusion partner: TEL (ETV6), the usual partner for Ba/F3 lines transformed by Syk; Nothing on a partner is printed

[1] = tested on: Ba/F3-WT (wild type) cells; assay: Ba/F3 Proliferation Assay, Ba/F3-WT (wild type) cells with mIL-3 (Resazurin); assay type: cell-based; details: Ba/F3-WT cells +mIL-3, 48-hour incubation

Row | Compound | pEC50 (Ba/F3-Syk cells) | pEC50 ([1]; Mus musculus, BaF3, 48 h) | pEC50 [1]
1 | COCCn1ccc(-c2cc(OC[C@@H]3CNCCO3)c3cccnc3c2)c1 [Compound 7.9, 7-[1-(2-methoxyethyl)-1H-pyrrol-3-yl]-5-{[(2S)-morpholin-2-yl]methoxy}quinoline] | 6.63 | 5.61 | –
2 | CC(C)n1ccc(-c2cc(OC[C@@H]3CNCC4(CC4)O3)c3cccnc3c2)c1 [Compound 7.13, 5-{[(5S)-4-oxa-7-azaspiro[2.5]octan-5-yl]methoxy}-7-[1-(propan-2-yl)-1H-pyrrol-3-yl]quinoline] | 7.65 | 5.40 | –
3 | FC(F)Cn1cc(-c2cc(OC[C@@H]3CNCCCO3)c3cccnc3c2)cn1 [Compound 7.15, 7-[1-(2,2-difluoroethyl)-1H-pyrazol-4-yl]-5-{[(2S)-1,4-oxazepan-2-yl]methoxy}quinoline] | 7.01 | 5.56 | –
4 | c1cnc2cc(-c3ccn(C4COC4)c3)cc(OC[C@@H]3CNCC4(CC4)O3)c2c1 [Compound 7.16, 5-{[(5S)-4-oxa-7-azaspiro[2.5]octan-5-yl]methoxy}-7-[1-(oxetan-3-yl)-1H-pyrrol-3-yl]quinoline] | 7.70 | 5.77 | –
5 | CCn1ccc(-c2cc(OC[C@@H]3CNCC(C)(C)O3)c3cccnc3c2)c1 [Compound 7.17, 5-{[(2S)-6,6-dimethylmorpholin-2-yl]methoxy}-7-(1-ethyl-1H-pyrrol-3-yl)quinoline] | 7.80 | 5.71 | –
6 | CCn1ccc(-c2cc(O[C@H](C)[C@@H]3CNCCO3)c3cccnc3c2)c1 [Compound 7.18, 7-(1-ethyl-1H-pyrrol-3-yl)-5-[(1R)-1-[(2S)-morpholin-2-yl]ethoxy]quinoline] | 7.27 | 5.76 | –
7 | CC(C)n1ccc(-c2cc(O[C@H](C)[C@@H]3CNCCO3)c3cccnc3c2)c1 [Compound 7.19, 5-[(1R)-1-[(2S)-morpholin-2-yl]ethoxy]-7-[1-(propan-2-yl)-1H-pyrrol-3-yl]quinoline] | 7.44 | 5.73 | –
8 | CCn1ccc(-c2cc(OC[C@@H]3CNCCO3)c3cccnc3c2)c1 [Compound 7.20, 7-(1-ethyl-1H-pyrrol-3-yl)-5-{[(2S)-morpholin-2-yl]methoxy}quinoline] | 7.40 | 5.77 | –
9 | COCCn1ccc(-c2cc(OC[C@@H]3CNCC4(CC4)O3)c3nccnc3c2)c1 [Compound 8.1, 7-[1-(2-methoxyethyl)-1H-pyrrol-3-yl]-5-{[(5S)-4-oxa-7-azaspiro[2.5]octan-5-yl]methoxy}quinoxaline] | 7.53 | 5.73 | –
10 | CC(C)n1ccc(-c2cc(OC[C@@H]3CNCC4(CC4)O3)c3nccnc3c2)c1 [Compound 8.2, 5-{[(5S)-4-oxa-7-azaspiro[2.5]octan-5-yl]methoxy}-7-[1-(propan-2-yl)-1H-pyrrol-3-yl]quinoxaline] | 7.66 | 6.21 | –
11 | COCCn1ccc(-c2cc(OC[C@@H]3CNCCO3)c3nccnc3c2)c1 [Compound 8.7] | 7.82 | – | 6.21
12 | CCn1ccc(-c2cc(OC[C@@H]3CNCCCO3)c3nccnc3c2)c1 [Compound 8.9, 7-(1-ethyl-1H-pyrrol-3-yl)-5-{[(2S)-1,4-oxazepan-2-yl]methoxy}quinoxaline] | 7.69 | 5.79 | –
13 | CC(C)n1ccc(-c2cc(O[C@H](C)[C@@H]3CNCC(C)(C)O3)c3nccnc3c2)c1 [Compound 8.11, 5-[(1R)-1-[(2S)-6,6-dimethylmorpholin-2-yl]ethoxy]-7-[1-(propan-2-yl)-1H-pyrrol-3-yl]quinoxaline] | 8.20 | 6.20 | –
14 | CCn1ccc(-c2cc(O[C@H](C)[C@@H]3CNCC(C)(C)O3)c3nccnc3c2)c1 [Compound 8.12, 5-[(1R)-1-[(2S)-6,6-dimethylmorpholin-2-yl]ethoxy]-7-(1-ethyl-1H-pyrrol-3-yl)quinoxaline] | 8.11 | 6.27 | –
15 | CC(C)n1ccc(-c2cc(O[C@H](C)[C@@H]3CNCCO3)c3nccnc3c2)c1 [Compound 8.13] | 8.14 | – | 6.43
16 | CCn1ccc(-c2cc(O[C@H](C)[C@@H]3CNCCO3)c3nccnc3c2)c1 [Compound 8.14, 7-(1-ethyl-1H-pyrrol-3-yl)-5-[(1R)-1-[(2S)-morpholin-2-yl]ethoxy]quinoxaline] | 8.08 | 6.36 | –
17 | C[C@@H](Oc1cc(-c2ccn(CC(F)F)c2)cc2nccnc12)[C@@H]1CNCCO1 [Compound 8.15, 7-[1-(2,2-difluoroethyl)-1H-pyrrol-3-yl]-5-[(1R)-1-[(2S)-morpholin-2-yl]ethoxy]quinoxaline] | 8.05 | 6.45 | –
18 | CCn1ccc(-c2cc(OC[C@@H]3CNCC4(CCC4)O3)c3nccnc3c2)c1 [Compound 8.16, 7-(1-ethyl-1H-pyrrol-3-yl)-5-{[(6S)-5-oxa-8-azaspiro[3.5]nonan-6-yl]methoxy}quinoxaline] | 8.03 | 6.09 | –
19 | COCCn1ccc(-c2cc(OC[C@@H]3CNCC4(CCC4)O3)c3nccnc3c2)c1 [Compound 8.18, 7-[1-(2-methoxyethyl)-1H-pyrrol-3-yl]-5-{[(6S)-5-oxa-8-azaspiro[3.5]nonan-6-yl]methoxy}quinoxaline] | 8.08 | 6.48 | –
20 | FC(F)Cn1ccc(-c2cc(OC[C@@H]3CNCCCO3)c3nccnc3c2)c1 [Compound 8.20, 7-[1-(2,2-difluoroethyl)-1H-pyrrol-3-yl]-5-{[(2S)-1,4-oxazepan-2-yl]methoxy}quinoxaline] | 7.56 | 5.73 | –
21 | CCn1ccc(-c2cc(OC[C@@H]3CNCC(C)(C)O3)c3nccnc3c2)c1 [Compound 8.21, 5-{[(2S)-6,6-dimethylmorpholin-2-yl]methoxy}-7-(1-ethyl-1H-pyrrol-3-yl)quinoxaline] | 8.00 | 6.02 | –
22 | CCn1ccc(-c2cc(OC[C@@H]3CNCCO3)c3nccnc3c2)c1 [Compound 8.22, 7-(1-ethyl-1H-pyrrol-3-yl)-5-{[(2S)-morpholin-2-yl]methoxy}quinoxaline] | 7.90 | 6.18 | –
23 | CC(C)n1ccc(-c2cc(OC[C@@H]3CNC[C@@H](C)O3)c3nccnc3c2)c1 [Compound 8.23, 5-{[(2S,6R)-6-methylmorpholin-2-yl]methoxy}-7-[1-(propan-2-yl)-1H-pyrrol-3-yl]quinoxaline] | 8.57 | 6.38 | –
24 | CC[C@@H](C)n1ccc(-c2cc(OC[C@@H]3CNCCO3)c3nccnc3c2)c1 [Compound 8.24, 7-{1-[(2R)-butan-2-yl]-1H-pyrrol-3-yl}-5-{[(2S)-morpholin-2-yl]methoxy}quinoxaline] | 7.89 | < 6.00 | –
25 | CC[C@H](C)n1ccc(-c2cc(OC[C@@H]3CNCCO3)c3nccnc3c2)c1 [Compound 8.25, 7-{1-[(2S)-butan-2-yl]-1H-pyrrol-3-yl}-5-{[(2S)-morpholin-2-yl]methoxy}quinoxaline] | 7.94 | < 6.00 | –

The next lines start with results.

Row | pEC50 (Ba/F3-Syk cells) | pEC50 ([1]; Mus musculus, BaF3, 48 h) | Compound | pEC50 [1]
26 | 6.08 | < 5.00 | Cn1cc(-c2cc3ncccc3c(O[C@H]([C@@H]3CNCCO3)C(F)(F)F)n2)cn1 [Compound 10.2, 7-(1-methyl-1H-pyrazol-4-yl)-5-[(1R)-2,2,2-trifluoro-1-[(2S)-morpholin-2-yl]ethoxy]-1,6-naphthyridine] | –
27 | 6.44 | < 5.00 | CC1(C)CNC[C@@H](COc2nc(-c3cnn4c3CCCC4)cc3ncccc23)O1 [Compound 10.3, 5-{[(2S)-6,6-dimethylmorpholin-2-yl]methoxy}-7-(4H,5H,6H,7H-pyrazolo[1,5-a]pyridin-3-yl}-1,6-naphthyridine] | –
28 | 6.18 | 5.09 | c1cnc2cc(-c3cnn4c3CCCC4)nc(OC[C@@H]3CNCCO3)c2c1 [Compound 10.4, 5-{[(2S)-morpholin-2-yl]methoxy}-7-{4H,5H,6H,7H-pyrazolo[1,5-a]pyridin-3-yl}-1,6-naphthyridine] | –
29 | 6.10 | 5.48 | Cn1cc(-c2cc3ncccc3c(O[C@@H]([C@@H]3CNCCO3)C(F)(F)F)n2)cn1 [Compound 10.5, 7-(1-methyl-1H-pyrazol-4-yl)-5-[(1S)-2,2,2-trifluoro-1-[(2S)-morpholin-2-yl]ethoxy]-1,6-naphthyridine] | –
30 | 6.97 | 6.12 | CC(C)n1cc(-c2cc3ncccc3c(OC[C@]3(C)CNCCO3)n2)cn1 [Compound 10.6, 5-{[(2S)-2-methylmorpholin-2-yl]methoxy}-7-[1-(propan-2-yl)-1H-pyrazol-4-yl]-1,6-naphthyridine] | –
31 | 7.09 | 5.72 | CC(C)n1cc(-c2cc3ncccc3c(OC[C@@]3(C)CNCCO3)n2)cn1 [Compound 10.8, 5-{[(2R)-2-methylmorpholin-2-yl]methoxy}-7-[1-(propan-2-yl)-1H-pyrazol-4-yl]-1,6-naphthyridine] | –
32 | 6.83 | 5.15 | Cn1ccc(-c2cc3ncccc3c(OC[C@@]3(C)CNCCO3)n2)c1 [Compound 10.9, 7-(1-methyl-1H-pyrrol-3-yl)-5-{[(2R)-2-methylmorpholin-2-yl]methoxy}-1,6-naphthyridine] | –
33 | 6.57 | 5.43 | Cn1cc(-c2cc3ncccc3c(OC[C@@H]3CNCC(C)(C)CO3)n2)cn1 [Compound 10.10, 5-{[(2S)-6,6-dimethyl-1,4-oxazepan-2-yl]methoxy}-7-(1-methyl-1H-pyrazol-4-yl)-1,6-naphthyridine] | –
34 | 7.09 | 5.38 | CC1(C)CNC[C@@H](COc2nc(-c3cnn(C(C)(C)C)c3)cc3ncccc23)OC1 [Compound 10.11, 7-(1-tert-butyl-1H-pyrazol-4-yl)-5-{[(2S)-6,6-dimethyl-1,4-oxazepan-2-yl]methoxy}-1,6-naphthyridine] | –
35 | 7.06 | 5.72 | CC(C)n1cc(-c2cc3ncccc3c(OC[C@@H]3CNCC(C)(C)CO3)n2)cn1 [Compound 10.12, 5-{[(2S)-6,6-dimethyl-1,4-oxazepan-2-yl]methoxy}-7-[1-(propan-2-yl)-1H-pyrazol-4-yl]-1,6-naphthyridine] | –
